Reference: patent US8106055B2, “Substituted amide compounds” (Gruenenthal GmbH, priority 2007, dated 2012)

target: T1, bradykinin 1 receptor (B1R) of the rat (Rattus norvegicus, UniProt P97583); assay: Functional investigation on the rat bradykinin 1 receptor (B1R), Ca2+ FLIPR assay in CHO K1 rB1R cells; assay type: cell-based; details: CHO-K1, B1R antagonism rat; test substance 10 μM; Ca2+ FLIPR, CHO K1 rB1R cells; read-out: B1R Ant. r [10 μM] % Inhibition
T1 construct: expressed in transfected cells; host or cells: CHO K1 cells
T1 sequence (P97583 1-337): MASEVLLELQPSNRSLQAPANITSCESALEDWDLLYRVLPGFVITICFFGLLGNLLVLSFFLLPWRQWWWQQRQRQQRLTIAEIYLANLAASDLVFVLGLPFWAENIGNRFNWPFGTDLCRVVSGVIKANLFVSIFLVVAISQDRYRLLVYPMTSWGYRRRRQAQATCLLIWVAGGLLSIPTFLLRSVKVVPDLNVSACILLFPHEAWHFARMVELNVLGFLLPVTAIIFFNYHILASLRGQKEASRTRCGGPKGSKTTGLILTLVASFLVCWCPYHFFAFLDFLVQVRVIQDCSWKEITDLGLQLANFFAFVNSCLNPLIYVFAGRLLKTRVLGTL
Outline: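 Fluo-4 Ca2+ readout, peak fluorescence. Stable CHO K1 transfectants; compound pre-incubated 10-20 min, then EC80 agonist—Lys-Des-Arg9-BK for hB1R, Des-Arg9-BK for rB1R. % inhibition vs maximal inhibition; IC50 from multiple concentrations, duplicate/triplicate, ≥2 independent runs.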

Going from `CN(C)C(c1cccc(F)c1)C1CCC(CNC(=O)COC2CCCCC2N(C)S(=O)(=O)c2ccc(Cl)c(Cl)c2)CC1` (stereo not drawn) [Example 164, 2-(2-(3,4-dichloro-N-methylphenylsulfonamido)cyclohexyloxy)-N-((4-((dimethylamino)(3-fluorophenyl)methyl)cyclohexyl)methyl)acetamide] to `CN(C)C(c1cccc(F)c1)C1CCC(CNC(=O)COC2CCN(S(=O)(=O)c3cccc(C(F)(F)F)c3)C2)CC1` (stereo not drawn) [Example 170, N-((4-((dimethylamino)(3-fluorophenyl)methyl)cyclohexyl)methyl)-2-(1-(3-(trifluoromethyl)phenylsulfonyl)pyrrolidin-3-yloxy)acetamide], the inhibition at 10 µM rises from 17% to 38%.

Compared with `COc1cc(C)c(S(=O)(=O)N2CCC(OCC(=O)NC3CCC(C(c4ccccc4)N(C)C)CC3)C2)c(C)c1` (stereo not drawn) [Example 165, N-(4-((dimethylamino)(phenyl)methyl)cyclohexyl)-2-(1-(4-methoxy-2,6-dimethylphenylsulfonyl)pyrrolidin-3-yloxy)acetamide], `COc1cc(C)c(S(=O)(=O)N2CCC(OCC(=O)NCC3CCC(C(c4ccccc4)N(C)C)CC3)C2)c(C)c1` (stereo not drawn) [Example 173, N-((4-((dimethylamino)(phenyl)methyl)cyclohexyl)methyl)-2-(1-(4-methoxy-2,6-dimethylphenylsulfonyl)pyrrolidin-3-yloxy)acetamide] is higher in inhibition at 10 µM: 38% for the first, 104% for the second.

First: Cc1ccc(S(=O)(=O)N2CCC(OCC(=O)NC3CCC(C(c4cccc(F)c4)N(C)C)CC3)C2)cc1 (stereo not drawn) [Example 167, N-(4-((dimethylamino)(3-fluorophenyl)methyl)cyclohexyl)-2-(1-tosylpyrrolidin-3-yloxy)acetamide]
Second: CN(C)C(c1cccc(F)c1)C1CCC(NC(=O)COC2CCN(S(=O)(=O)c3ccc(F)cc3)C2)CC1 (stereo not drawn) [Example 172, N-(4-((dimethylamino)(3-fluorophenyl)methyl)cyclohexyl)-2-(1-(4-fluorophenylsulfonyl)pyrrolidin-3-yloxy)acetamide]
The inhibition at 10 µM of the first is higher: 40% for the first, 18% for the second.

First: COc1ccc(S(=O)(=O)N(C)CCOCC(=O)NCC2CCC(C(c3ccccc3)N(C)C)CC2)cc1OC (stereo not drawn) [Example 169, 2-(2-(3,4-dimethoxy-N-methylphenylsulfonamido)ethoxy)-N-((4-((dimethylamino)(phenyl)methyl)cyclohexyl)methyl)acetamide]
Second: CN(C)C(c1cccc(F)c1)C1CCC(NC(=O)COCCN(C)S(=O)(=O)c2c(Cl)cccc2Cl)CC1 (stereo not drawn) [Example 171, 2-(2-(2,6-dichloro-N-methylphenylsulfonamido)ethoxy)-N-(4-((dimethylamino)(3-fluorophenyl)methyl)cyclohexyl)acetamide]
The inhibition at 10 µM of the first is lower: -15% for the first, 43% for the second.

Going from `CN(C)C(c1cccc(F)c1)C1CCC(CCNC(=O)COCCN(C)S(=O)(=O)c2c(Cl)cc(Cl)cc2Cl)CC1` (stereo not drawn) [Example 174, N-(2-(4-((dimethylamino)(3-fluorophenyl)methyl)cyclohexyl)ethyl)-2-(2-(2,4,6-trichloro-N-methylphenylsulfonamido)ethoxy)acetamide] to `CCN(CCOCC(=O)NC1CCC(C(c2cccc(F)c2)N(C)C)CC1)S(=O)(=O)c1c(C)cc(OC)c(C)c1C` (stereo not drawn) [Example 176, N-(4-((dimethylamino)(3-fluorophenyl)methyl)cyclohexyl)-2-(2-(N-ethyl-4-methoxy-2,3,6-trimethylphenylsulfonamido)ethoxy)acetamide], the inhibition at 10 µM rises from 44% to 47%.

Compared with `CN(C)C(c1cccc(F)c1)C1CCC(NC(=O)COCCN(Cc2ccccc2)S(=O)(=O)c2ccccc2)CC1` (stereo not drawn) [Example 175, 2-(2-(N-benzylphenylsulfonamido)ethoxy)-N-(4-((dimethylamino)(3-fluorophenyl)methyl)cyclohexyl)acetamide], `COc1cc(C)c(S(=O)(=O)N2CCC(OCC(=O)NCCC3CCC(C(c4cccs4)N(C)C)CC3)CC2)c(C)c1C` (stereo not drawn) [Example 177, N-(2-(4-((dimethylamino)(thiophen-2-yl)methyl)cyclohexyl)ethyl)-2-(1-(4-methoxy-2,3,6-trimethylphenylsulfonyl)piperidin-4-yloxy)acetamide] is higher in inhibition at 10 µM: 5% for the first, 45% for the second.
